# Experimental data: patent US20240124389A1, “COMPOUND OR SALT THEREOF, LIPID PARTICLES, AND PHARMACEUTICAL COMPOSITION” (FUJIFILM Corporation, priority 2021, published 2024)
# What was measured:
# [1] = Particle size of EPO mRNA-encapsulating lipid particles; format: physicochemical
# Method: (§1) The compounds described in Table 1, the neutral lipid, cholesterol (product name: Cholesterol HP; NIPPON FINE CHEMICAL CO., LTD.), and 1,2-dimyristoyl-rac-glycero-3-(methylpolyoxyethylene 2000) (hereinafter, called DMG-PEG2000) (product name: SUNBRIGHT® GM-020; NOF corporation) were dissolved in ethanol at a molar ratio in Table 1 such that the total lipid concentration became 20 mmol/L, thereby obtaining an oil phase.
# (§2) As the neutral lipid, 1,2-distearoyl-sn-glycero-3-phosphocholine (product name: COATSOME® MC-8080; NOF corporation) (hereinafter, DSPC), or L-α-dioleoyl phosphatidylethanolamine (Hereinafter, DOPE) (product name: COATSOME® ME-8181; NOF corporation), or 1,2-dioleoyl-sn-glycero-3-phosphocholine (hereinafter, DOPC) (product name: COATSOME® MC-8181; NOF corporation) was used.
# (§3) EPO mRNA (product name: CleanCap EPO mRNA (5moU); TriLink) was diluted with 50 mmol/L citrate buffer having a pH 4 such that the weight ratio of total lipid concentration to mRNA concentration is about 16:1 to 64:1, thereby obtaining a water phase. Then, the water phase and the oil phase were mixed together using NanoAssemblr (Precision NanoSystems) such that the volume ratio of water phase:oil phase was 3:1, and the mixed solution was 1.5-fold diluted with phosphate buffered saline (PBS), thereby obtaining a dispersion liquid of mRNA lipid particles. The dispersion liquid was dialyzed with a 10% aqueous sucrose solution using a dialysis cassette (Slide-A-Lyzer G2, MWCO: 10 kD, Thermo Fisher Scientific) to remove ethanol, thereby obtaining EPO mRNA-encapsulating lipid particles.
# (§4) The particle size of the mRNA-encapsulating lipid particles was measured by 10-fold diluting the dispersion liquid of lipid particle with phosphate buffered saline (PBS) using Zeta-potential & Particle size Analyzer ELS-Z2 (Otsuka Electronics Co., Ltd.).
# EPO mRNA = experiment: mRNA encapsulation rate of EPO mRNA-encapsulating lipid particles; format: physicochemical
# Method: as §1, §2, §3
# (§5) 15 to 30 μL of a 3 mol/L aqueous sodium acetate solution and 4.5 to 9 μL of glycogen were added to 30 to 60 μL of the lipid particles retaining mRNA, and 0.75 to 1.5 mL of ethanol was added thereto, so that only the nucleic acids were precipitated while the lipid was dissolved. Then, the supernatant was removed by centrifugation. The precipitates were air-dried for 15 minutes or longer, then water was added thereto to redissolve the precipitates, and the concentration thereof was measured using Nanodrop NF1000 (Thermo Fisher Scientific), thereby quantifying the total mRNA concentration.
# (§6) The mRNA concentration was quantified using a Quant-iT RiboGreen RNA Assay Kit (Thermo Fisher Scientific) according to the protocol. First, a 20×TE buffer included in the above-described kit was diluted with water, thereby obtaining a 1×TE buffer. TE represents Tris/EDTA (ethylenediaminetetraacetic acid). In order to quantify only mRNA in the outer water phase, the dispersion liquid of lipid particles retaining mRNA was 10,000-fold diluted with the 1×TE buffer. 100 μL of the 10,000-fold diluted dispersion liquid of lipid particles was put into a 96-well plate, then 100 μL of a RiboGreen reagent (reagent included in the Quanti-iT Ribogreen RNA Assay Kit described above) 2,000-fold diluted with the 1×TE buffer was added to a sample, and fluorescence (excitation wavelength: 485 nm, fluorescence wavelength: 535 nm) was measured using a plate reader Infinite F200 (TECAN), thereby quantifying the mRNA concentration in the outer water phase.
# (§7) By using the quantification results of the total mRNA concentration and the mRNA concentration in the outer water phase that were obtained through the above steps, the mRNA encapsulation rate of the mRNA lipid particles was calculated according to the following Equation.
# (§8) mRNA encapsulation rate (%)=(total mRNA concentration-mRNA concentration in outer water phase)/total mRNA concentration×100
# [2] = Particle size of FLuc mRNA-encapsulating lipid particles; format: physicochemical; conditions: lipid/nucleic acid 32 wt/wt
# Method: as §1, with “Table 2,” for “Table 1,”, “HP; NTPPON” for “HP; NIPPON”, “DMG-PEG2000)” for “DMG-PEG2000) (product name: SUNBRIGHT® GM-020; NOF corporation)”, “Table 2” for “Table 1”
# (§9) As the neutral lipid, 1,2-distearoyl-sn-glycero-3-phosphocholine (product name: COATSOME® MC-8080; NOF corporation) was used in a case of Comparative Example 1, and L-α-dioleoylphosphatidylethanolamine (product name: COATSOME® MC-8181; NOF corporation) was used in a case other than Comparative Example 1.
# as §3, with “FLuc” for “EPO”, “(5 moU);” for “(5moU);”, “19:1” for “16:1”, “64:1,” for “64:1, thereby”
# as §4
# human EPO = experiment: Measurement of EPO enzyme activity (EPO protein in blood plasma of mice after intravenous administration of EPO mRNA lipid particles); format: in vivo; conditions: C57BL/6J mice, tail-vein i.v., mRNA 0.1 mg/kg, plasma 20 to 24 hours
# Method: as §1, §2, §3
# The dispersion liquid of mRNA lipid particles prepared in above-described <Preparation of EPO mRNA-encapsulating lipid particles> was tail-vein intravenously administered to C57BL/6J mice at a mRNA dosage of 0.1 mg/kg. 20 to 24 hours after the administration, blood was collected from the caudal vena cava, thereby obtaining blood plasma. The human EPO enzyme activity was quantified by using the obtained blood plasma and ab119522 Erythropoietin (EPO) Human Elisa Kit (Abcam.plc). The quantitative value is described as a relative amount of EPO protein in a case where Comparative Example 1 is 1.
# FLuc mRNA [3] = experiment: mRNA encapsulation rate of FLuc mRNA-encapsulating lipid particles; format: physicochemical; conditions: aminolipid 45 / DOPE 10 / cholesterol 43.5 / DMG-PEG2000 1.5 mol %, lipid/nucleic acid 32 wt/wt
# Method: as §1, with “Table 2,” for “Table 1,”, “HP; NTPPON” for “HP; NIPPON”, “DMG-PEG2000)” for “DMG-PEG2000) (product name: SUNBRIGHT® GM-020; NOF corporation)”, “Table 2” for “Table 1”
# as §9
# as §3, with “FLuc” for “EPO”, “(5 moU);” for “(5moU);”, “19:1” for “16:1”, “64:1,” for “64:1, thereby”
# as §5, §6, §7, §8
# FLuc mRNA [4] = experiment: as above; format: physicochemical; conditions: lipid/nucleic acid 32 wt/wt
# [5] = Particle size of FLuc mRNA-encapsulating lipid particles; format: physicochemical; conditions: aminolipid 45 / DOPC 10 / cholesterol 43.5 / DMG-PEG2000 1.5 mol %, lipid/nucleic acid 32 wt/wt
# [6] = aminolipid 50 / DOPE 10 / cholesterol 38.5 / DMG-PEG2000 1.5 mol %, lipid/nucleic acid 64 wt/wt
# [7] = aminolipid 45 / DOPE 10 / cholesterol 43.5 / DMG-PEG2000 1.5 mol %
# [8] = aminolipid 45 / DOPE 10 / cholesterol 43.5 / DMG-PEG2000 1.5 mol %, lipid/nucleic acid 64 wt/wt
# [9] = aminolipid 45 / DOPC 10 / cholesterol 43.5 / DMG-PEG2000 1.5 mol %, lipid/nucleic acid 32 wt/wt
# [10] = aminolipid 45 / DOPE 10 / cholesterol 43.5 / DMG-PEG2000 1.5 mol %, lipid/nucleic acid 32 wt/wt
# [11] = aminolipid 45 / no neutral lipid / cholesterol 53.5 / DMG-PEG2000 1.5 mol %, lipid/nucleic acid 32 wt/wt
# [12] = aminolipid 45 / neutral lipid — (composition printed 10) / cholesterol 53.5 / DMG-PEG2000 1.5 mol %
SMILES,"Particle size [1, 6] [nm]",Nucleic acid encapsulation rate (EPO mRNA; [6]) [%],"Particle size [2, 7] [nm]",Nucleic acid encapsulation rate (FLuc mRNA [3]) [%],Relative amount of EPO protein (with respect to Comparative Example 1) (human EPO; [6]),other results
"CCN(CC)CCN(CCOC(=O)OC(CCCC(=O)OCCCCCCCCSC)CCCC(=O)OCCCCCCCCSC)CCOC(=O)OC(CCCC(=O)OCCCCCCCCSC)CCCC(=O)OCCCCCCCCSC [Example 44, Bis(8-(methylthio)octyl) 11-(2-(diethylamino)ethyl)-5,17-bis(4-((8-(methylthio)octyl)oxy)-4-oxobutyl)-7,15-dioxo-6,8,14,16-tetraoxa-11-azahenicosanedioate]",–,–,170.5,100.0,–,"Particle size [1, 8]: 201.9 nm; Nucleic acid encapsulation rate (EPO mRNA; [8]): 81.2%; Relative amount of EPO protein (with respect to Comparative Example 1) (human EPO; [8]): 1.39"
"CCCCCC(CCCCC)COC(=O)CCCC(CCCC)OC(=O)OCCN(CCOC(=O)OC(CCCC)CCCC(=O)OCC(CCCCC)CCCCC)CCN(CC)CC (stereo not shown) [Example 22, Bis(2-pentylheptyl) 5,17-dibutyl-11-(2-(diethylamino)ethyl)-7,15-dioxo-6,8,14,16-tetraoxa-11-azahenicosanedioate]",78.3,98.6,95,98.7,4.69,–
"CCCCCCSCCOC(=O)CCCC(CCCC(=O)OCCSCCCCCC)OC(=O)OCCN(CCOC(=O)OC(CCCC(=O)OCCSCCCCCC)CCCC(=O)OCCSCCCCCC)CCN(CC)CC [Example 43, Bis(2-(hexylthio)ethyl) 11-(2-(diethylamino)ethyl)-5,17-bis(4-(2-(hexylthio)ethoxy)-4-oxobutyl)-7,15-dioxo-6,8,14,16-tetraoxa-11-azahenicosanedioate]",–,–,144,100.0,–,"Particle size [1, 8]: 155.0 nm; Nucleic acid encapsulation rate (EPO mRNA; [8]): 95.7%; Relative amount of EPO protein (with respect to Comparative Example 1) (human EPO; [8]): 3.12"

# Second part, led by results:
"Particle size [1, 6] [nm]",Nucleic acid encapsulation rate (EPO mRNA; [6]) [%],"Particle size [2, 7] [nm]",Nucleic acid encapsulation rate (FLuc mRNA [3]) [%],SMILES,Relative amount of EPO protein (with respect to Comparative Example 1) (human EPO; [6]),other results
147.2,93.8,141.1,90.1,"CCCCCCCOC(=O)CCC(CCC(=O)OCCCCCCC)OC(=O)OCCN(CCOC(=O)OC(CCC(=O)OCCCCCCC)CCC(=O)OCCCCCCC)CCN(CC)CC [Example 39, Diheptyl 10-(2-(diethylamino)ethyl)-4,16-bis(3-(heptyloxy)-3-oxopropyl)-6,14-dioxo-5,7,13,15-tetraox a-10-azanonadecanedioate]",8.03,–
101.4,100.0,116,99.7,"CCCCCCCOC(=O)CCCC(CCCC(=O)OCCCCCCC)OC(=O)OCCN(CCCN(CC)CC)CCOC(=O)OC(CCCC(=O)OCCCCCCC)CCCC(=O)OCCCCCCC [Example 38, Diheptyl 11-(3-(diethylamino)propyl)-5,17-bis(4-(heptyloxy)-4-oxobutyl)-7,15-dioxo-6,8,14,16-tetraox a-11-azahenicosanedioate]",2.13,–
–,–,82.9,100.0,"CCCCCC(CCCCC)COC(=O)CCCC(CCC)OC(=O)OCCN(CCCN(CC)CC)CCOC(=O)OC(CCC)CCCC(=O)OCC(CCCCC)CCCCC (stereo not shown) [Example 28, Bis(2-pentylheptyl) 11-(3-(diethylamino)propyl)-7,15-dioxo-5,17-dipropyl-6,8,14,16-tetraoxa-11-azahenicosanedi oate]",–,"Particle size [1, 9]: 82.1 nm; Particle size [1, 10]: 115.7 nm; Particle size [1, 11]: 155.2 nm; Nucleic acid encapsulation rate (EPO mRNA; [9]): 99.2%; Nucleic acid encapsulation rate (EPO mRNA; [10]): 98.8%; Nucleic acid encapsulation rate (EPO mRNA; [11]): 99.2%; Particle size [2, 12]: 164.6 nm; Nucleic acid encapsulation rate (FLuc mRNA [4]; aminolipid 45 / DOPC 10 / cholesterol 43.5 / DMG-PEG2000 1.5 mol %): 99.1%; Nucleic acid encapsulation rate (FLuc mRNA [4]; [12]): 99.1%; Relative amount of EPO protein (with respect to Comparative Example 1) (human EPO; [9]): 3.54; Relative amount of EPO protein (with respect to Comparative Example 1) (human EPO; [10]): 1.23; Relative amount of EPO protein (with respect to Comparative Example 1) (human EPO; [11]): 1.47; Particle size [5]: 104.3 nm"
88.8,100,–,–,"CCCCCCCC/C=C\CCCCCCCC(=O)OCCN(CCOC(=O)OC(CCCCCC)CCCCCCCCC(=O)OCC(CCCCCC)CCCCCCCC)CCN(CC)CC (stereo not shown) [Comparative Example 2, reference compound]",0.74,–
